The values below are quoted from earlier work in patent US20230019999A1, “COMBINATION DRUG” (Chugai Seiyaku Kabushiki Kaisha, priority 2019, published 2023).

This data set has as its system lung cancer cells positive for the CCDC6-RET fusion gene. The following applies: non-clinical studies, Non Patent Literatures 9 and 10.

As for `CCc1cc2c(cc1N1CCC(N3CCOCC3)CC1)C(C)(C)c1[nH]c3cc(C#N)ccc3c1C2=O` [Alectinib, 9-ethyl-6,6-dimethyl-8-[4-(morpholin-4-yl)-piperidin-1-yl]-11-oxo-6,11-dihydro-5H-benzo[b]carbazole-3-carbonitrile], the anti-tumor effect entry was “exhibit an anti-tumor effect”.
